The values that follow are results of earlier work, collected in EP3623369A1, “NOVEL MORPHOLINYL AMINE COMPOUNDS FOR THE TREATMENT OF AUTOIMMUNE DISEASE” (F. Hoffmann-La Roche AG, priority 2018, dated 2020).

This data set deals with T1, hTLR7 (Homo sapiens, UniProt Q9NYK1).
T1 sequence (Q9NYK1 27-1049): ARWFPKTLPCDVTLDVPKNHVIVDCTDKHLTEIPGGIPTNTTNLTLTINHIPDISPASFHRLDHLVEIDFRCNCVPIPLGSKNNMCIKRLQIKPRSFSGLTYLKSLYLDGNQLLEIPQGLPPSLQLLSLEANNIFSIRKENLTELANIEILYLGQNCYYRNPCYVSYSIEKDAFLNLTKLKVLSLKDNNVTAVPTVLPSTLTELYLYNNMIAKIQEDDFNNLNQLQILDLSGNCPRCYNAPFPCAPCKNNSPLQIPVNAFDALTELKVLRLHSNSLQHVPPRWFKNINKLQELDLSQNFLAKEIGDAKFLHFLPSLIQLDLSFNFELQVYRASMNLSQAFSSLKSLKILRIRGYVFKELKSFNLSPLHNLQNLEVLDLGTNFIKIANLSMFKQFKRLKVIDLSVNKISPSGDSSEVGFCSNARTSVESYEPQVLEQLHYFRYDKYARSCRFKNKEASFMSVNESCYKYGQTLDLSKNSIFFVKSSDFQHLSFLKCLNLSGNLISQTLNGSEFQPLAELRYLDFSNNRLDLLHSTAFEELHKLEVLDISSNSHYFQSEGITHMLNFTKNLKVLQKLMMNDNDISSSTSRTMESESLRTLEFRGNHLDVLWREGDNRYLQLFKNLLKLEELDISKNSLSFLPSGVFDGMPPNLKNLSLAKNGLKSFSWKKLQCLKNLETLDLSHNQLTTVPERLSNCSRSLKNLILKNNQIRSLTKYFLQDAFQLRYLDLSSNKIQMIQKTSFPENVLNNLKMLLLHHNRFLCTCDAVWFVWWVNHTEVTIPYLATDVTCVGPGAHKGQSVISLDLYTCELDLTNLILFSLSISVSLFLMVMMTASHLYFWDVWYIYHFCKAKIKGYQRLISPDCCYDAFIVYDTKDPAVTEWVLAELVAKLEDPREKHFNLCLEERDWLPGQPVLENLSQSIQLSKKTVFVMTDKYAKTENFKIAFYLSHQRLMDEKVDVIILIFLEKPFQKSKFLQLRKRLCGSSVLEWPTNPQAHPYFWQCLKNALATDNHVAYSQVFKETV
More on the design: host or cells: HEK. Particulars: data disclosed in US20150105370; read-out: HEK/hTLR7 IC50; cited from earlier work.

Consider `C[C@@H]1CN(c2ccc(C#N)c3ncccc23)C[C@H](CNCc2ccccc2)O1` [ER-886509, reference compound], for which the IC50 was 44 nM.
